Values quoted from earlier work in patent US20150157714A1, “IMPLEMENTATION OF NON-PATHOGENIC BIOLUMINESCENT BACTERIA AS A SUB-MICRON LIGHT EMITTING SOURCE FOR PHOTO-DYNAMIC THERAPY IN THE LUNGS” (priority 2013, published 2015).

System: methicillin-resistant Staphylococcus aureus (MRSA)
Settings: with 632.8 nm light

| Compound | eradication of MRSA |
| --- | --- |
| Cc1cc2nc3ccc(N(C)C)cc3[s+]c2cc1N.[Cl-] [Toluidine Blue] | eradicate |

System: multi-drug resistant Pseudomonas aeruginosa (Gram −) isolates
Settings: 60 different multi-drug resistant isolates

| Compound | reduction of isolates with PDT |
| --- | --- |
| Cc1cc2nc3ccc(N(C)C)cc3[s+]c2cc1N.[Cl-] [Toluidine Blue] | significantly reduced |

System: not given
Settings: FIG. 1, representative spectral curve

| Compound | spectral curve runs to wavelength | spectral curve starts at wavelength | spectral peak of emitted light |
| --- | --- | --- | --- |
| Wild-type Firefly luciferase (FFluc): Wild-type Firefly luciferase from Photinus pyralis, uses D-luciferin, ATP dependent | about 680 nm | about 460 nm | about 557 nm |
| Mutated Firefly luciferase S284T: mutated firefly luciferase S284T | about 720 nm | about 520 nm | about 630 nm |

System: Multidrug-resistant Pseudomonas aeruginosa
Settings: 635 nm light

| Compound | susceptibility to photosensitizer and light |
| --- | --- |
| CN(C)c1ccc2nc3ccc(=[N+](C)C)cc-3sc2c1 [Methylene Blue] | susceptibility |

System: not given
Settings: absorption spectra wavelengths for photochemical interactions

| Compound | Spectral Absorption Ranges and Peaks |
| --- | --- |
| Nc1c(/N=N/c2ccc(-c3ccc(/N=N/c4cc(S(=O)(=O)O)c5ccccc5c4N)cc3)cc2)cc(S(=O)(=O)O)c2ccccc12 [Congo Red] | 400-560 nm |
| Basic Fuchsin | 520-570 nm |
| CC(=O)Nc1ccc2nc3c4ccccc4c(=N)cc-3oc2c1.Cl [Darrow Red] | 450-550 nm |
| CCOC(=O)c1ccccc1-c1c2cc(Br)c(=O)c(Br)c-2oc2c(Br)c([O-])c(Br)cc12.[K+] [Ethyl Eosin] | 530-550 nm |
| Azure B | 580+ nm |
| O=S(=O)([O-])c1cc(S(=O)(=O)[O-])c2c(N=Nc3ccc(S(=O)(=O)[O-])c4ccccc34)c(O)ccc2c1.[Na+].[Na+].[Na+] [New Coccine] | 506 nm |
| Phthalocyanine-4 | 670 nm |
| C=Cc1c(C)c2cc3nc(c(CC(=O)N[C@@H](CC(=O)O)C(=O)O)c4[nH]c(cc5nc(cc1[nH]2)C(C)=C5CC)c(C)c4C(=O)O)[C@@H](CCC(=O)O)[C@@H]3C [Talaporfin (LS11, MACE, Npe6), Talaporfin] | 660 nm |
| O=C([O-])c1c(Cl)c(Cl)c(Cl)c(Cl)c1-c1c2cc(Br)c(=O)c(Br)c-2oc2c(Br)c([O-])c(Br)cc12.[Na+].[Na+] [Phloxine B] | 520+ nm |
| O=C([O-])C1=NN(c2ccc(S(=O)(=O)[O-])cc2)C(=O)C1N=Nc1ccc(S(=O)(=O)[O-])cc1.[Na+].[Na+].[Na+] (stereo not drawn) [Tartrazine] | 400-460 nm |
| Cc1ccccc1/N=N/c1ccc(/N=N/c2c(O)ccc3ccccc23)c(C)c1 [Sudan IV] | 470-580 nm |
| Cc1c(C(=O)O)c(O)cc2c1C(=O)c1c(O)c(C3O[C@H](CO)[C@@H](O)[C@H](O)[C@H]3O)c(O)c(O)c1C2=O (stereo in doubt) [Carmine] | 500-570 nm |
| O=C([O-])c1c(Cl)c(Cl)c(Cl)c(Cl)c1-c1c2cc(I)c(=O)c(I)c-2oc2c(I)c([O-])c(I)cc12.[Na+].[Na+] [Rose bengal] | 548 nm |
| CCOC(=O)C1=Cc2c3nc(cc4nc(cc5[n-]c(cc6[n-]c2c(C)c6CC)c(C)c5CC)C(C)=C4CC)[C@@H](C)[C@]13CC.[Cl-].[Cl-].[Sn] [SnEt2 (Purlytin), SnEt2] | 660 nm |
| Nickel 5,10-bis-acrylate etioporphyrin I | 580 nm |
| Verteporfin | 690 nm |
| CN(C)c1ccc2nc3ccc(=[N+](C)C)cc-3sc2c1 [Methylene Blue] | 590+ nm |
| CN(C)c1ccc(C(=C2C=CC(=[N+](C)C)C=C2)c2c(O)c(S(=O)(=O)[O-])cc3cc(S(=O)(=O)[O-])ccc23)cc1.[Na+] [Lissamine green] | 633 nm |
| HPPH | 665 nm |
| Cc1cc2nc3ccc(N(C)C)cc3nc2cc1N.Cl [Neutral Red] | 480-570 nm |
| CCN(Cc1cccc(S(=O)(=O)[O-])c1)c1ccc(C(=C2C=CC(=[N+](CC)Cc3cccc(S(=O)(=O)[O-])c3)C=C2)c2ccccc2S(=O)(=O)[O-])cc1.[Na+].[Na+] [Erioglaucine disodium salt] | 629 nm |
| O=C([O-])c1ccccc1-c1c2cc(Br)c(=O)c(Br)c-2oc2c(Br)c([O-])c(Br)cc12.[Na+].[Na+] [Eosin Y] | 490-530 nm |
| Silicon phthalocyanine [Silicon phthalocyanine (Pc4)] | 675 nm |
| Cc1cc2nc3ccc(N(C)C)cc3[s+]c2cc1N.[Cl-] [Toluidine Blue] | 560+ nm |
| O=S(=O)([O-])c1ccc(N=Nc2cc(S(=O)(=O)[O-])c3ccccc3c2O)c2ccccc12.[Na+].[Na+] [Carmoisine azorubine] | 515 nm |
| CN(C)c1ccc(C(=C2C=CC(=[N+](C)C)C=C2)c2ccc([N+](C)(C)C)cc2)cc1.[Cl-].[Cl-] [Methyl Green] | 560+ nm |

| Compound | Spectral Absorption Ranges and Peaks |
| --- | --- |
| CN(C)c1ccc(C(=C2C=CC(=[N+](C)C)C=C2)c2ccc(N(C)C)cc2)cc1 [Crystal Violet] | 550-610 nm |
| O=S(=O)(O)c1cc(S(=O)(=O)O)c2c(/N=N/c3ccccc3)c(O)ccc2c1 [Orange G] | 450-510 nm |
| O=S(=O)([O-])c1cc(S(=O)(=O)[O-])c2c(N=Nc3ccc(S(=O)(=O)[O-])c4ccccc34)c(O)ccc2c1.[Na+].[Na+].[Na+] [Brilliant Scarlet 4R] | 503 nm |
| CCOC(=O)C1=Cc2c3nc(cc4nc(cc5[n-]c(cc6[n-]c2c(C)c6CC)c(C)c5CC)C(C)=C4CC)[C@@H](C)[C@]13CC.[Cl-].[Cl-].[Sn] (racemic) [Tin etiopurpurin] | 660 nm |
| BPD-ma | 689 nm |
| Cc1cc(-c2ccc(/N=N/c3c(S(=O)(=O)O)cc4cc(S(=O)(=O)O)cc(N)c4c3O)c(C)c2)ccc1/N=N/c1c(S(=O)(=O)O)cc2cc(S(=O)(=O)O)cc(N)c2c1O [Trypan Blue] | 500+ nm |
| CCN(Cc1cccc(S(=O)(=O)O)c1)c1ccc(C(=C2C=CC(=[N+](CC)Cc3cccc(S(=O)(=O)O)c3)C=C2)c2ccc(S(=O)(=O)O)cc2)cc1.[Na+].[Na+] [Light Green SF] | 590+ nm |
| O.O=C([O-])c1ccccc1-c1c2cc(I)c(=O)c(I)c-2oc2c(I)c([O-])c(I)cc12.[Na+].[Na+] [Erythrosin B] | 510-540 nm |
| COc1cc(S(=O)(=O)[O-])c(C)cc1N=Nc1c(O)ccc2cc(S(=O)(=O)[O-])ccc12.[Na+].[Na+] [Allura Red AC] | 504 nm |
| CC1=C(/C=C/C(C)=C/C=C/C(C)=C/C=C/C=C(C)/C=C/C=C(C)/C=C/C2=C(C)CCCC2(C)C)C(C)(C)CCC1 [Beta carotene] | 470 nm |
| Mono-N-Aspartyl Chlorin e6 | 664 nm |
| Acid Fuchsin | 530-560 nm |
| O=S(=O)([O-])c1ccc(/N=N/c2cc(S(=O)(=O)[O-])c3ccccc3c2O)c2ccccc12.[Na+].[Na+] [Chromotrope FB] | 512 nm |
| CCN(Cc1cccc(S(=O)(=O)[O-])c1)c1ccc(C(=C2C=CC(=[N+](CC)Cc3cccc(S(=O)(=O)[O-])c3)C=C2)c2ccc(O)cc2S(=O)(=O)[O-])cc1.[Na+].[Na+] [Fast Green] | 560+ nm |
| Aniline Blue | 550-620 nm |
| O=C1/C(=C2\Nc3ccc(S(=O)(=O)[O-])cc3C2=O)Nc2ccc(S(=O)(=O)[O-])cc21.[Na+].[Na+] [Indigo Carmine] | 608 nm |
| Nc1c(O)c(S(=O)(=O)[O-])c(O)c2c1C(=O)c1ccccc1C2=O.[Na+] [Nuclear Fast Red] | 460-550 nm |
| Cc1cc2nc3cc(C)c(N)cc3[n+](-c3ccccc3)c2cc1N.[Cl-] [Safranin O] | 470-550 nm |
| CC(C)=CCC/C(C)=C/C=C/C(C)=C/C=C/C(C)=C/C=C/C=C(C)/C=C/C=C(C)/C=C/C=C(\C)CCC=C(C)C [Lycopene] | 530 nm |
| Taporfin Sodium | 664 nm |
| Cc1cc2nc3c(=O)[nH]c(=O)nc-3n(C[C@H](O)[C@H](O)[C@H](O)COP(=O)([O-])O)c2cc1C.[Na+] [Riboflavin 5′-monophosphate sodium salt] | 441 nm |
| CNc1ccc2nc3ccc(N)cc3[s+]c2c1.[Cl-] [Azure C] | 580-640 nm |
| NCC(=O)CCC(=O)O [ALA] | 635 nm |
| Sudan Red | 450-590 nm |
| Luxol Fast Blue | 500-640 nm |
| Brilliant Cresyl Blue | 550+ nm |

Same assay, conditions: visible light absorption peaks named in text

| Compound | absorption peak [nm] |
| --- | --- |
| Si(IV)-naphthocyanine | 773 |
| C=Cc1c(C)c2cc3nc(c(CC(=O)O)c4[nH]c(cc5nc(cc1[nH]2)C(C)=C5CC)c(C)c4C(=O)O)[C@@H](CCC(=O)O)[C@@H]3C [Chlorin e6] | 410 |
